Experimental data taken from PubChem BioAssay (NCI).
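Grown in 96-well plates, cells were treated for 48 hours with each compound at five concentrations. Insufficient inhibition: endpoint recorded as highest concentration tested. Abbreviation: GI50, concentration required for 50% inhibition of growth. TGI: concentration producing complete growth inhibition.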

Tests used:
Experiment in all cases: NCI tumour cell line growth inhibition, 48 h
786-0 renal = test system: 786-0 renal
A498 renal = test system: A498 renal
A549 NSCLC = test system: A549 NSCLC
ACHN renal = test system: ACHN renal
BT-549 breast = test system: BT-549 breast
CAKI-1 renal = test system: CAKI-1 renal
COLO 205 colon = test system: COLO 205 colon
DU-145 prostate = test system: DU-145 prostate
EKVX NSCLC = test system: EKVX NSCLC
HCC-2998 colon = test system: HCC-2998 colon
HCT-116 colon = test system: HCT-116 colon
HCT-15 colon = test system: HCT-15 colon
HL-60(TB) leukemia = test system: HL-60(TB) leukemia
HOP-62 NSCLC = test system: HOP-62 NSCLC
HOP-92 NSCLC = test system: HOP-92 NSCLC
HS 578T breast = test system: HS 578T breast
HT29 colon = test system: HT29 colon
IGROV1 ovarian = test system: IGROV1 ovarian
K-562 leukemia = test system: K-562 leukemia
KM12 colon = test system: KM12 colon
LOX IMVI melanoma = test system: LOX IMVI melanoma
M14 melanoma = test system: M14 melanoma
MALME-3M melanoma = test system: MALME-3M melanoma
MCF7 breast = test system: MCF7 breast
MDA-MB-231 breast = test system: MDA-MB-231 breast
MDA-MB-435 = test system: MDA-MB-435
MOLT-4 leukemia = test system: MOLT-4 leukemia
NCI-H226 lung = test system: NCI-H226 lung
NCI-H460 lung = test system: NCI-H460 lung
NCI-H522 lung = test system: NCI-H522 lung
NCI/ADR-RES ovarian = test system: NCI/ADR-RES ovarian
OVCAR-4 ovarian = test system: OVCAR-4 ovarian
OVCAR-5 ovarian = test system: OVCAR-5 ovarian
OVCAR-8 ovarian = test system: OVCAR-8 ovarian
PC-3 prostate = test system: PC-3 prostate
SF-268 CNS = test system: SF-268 CNS
SF-295 CNS = test system: SF-295 CNS
SF-539 CNS = test system: SF-539 CNS
SK-MEL-2 melanoma = test system: SK-MEL-2 melanoma
SK-MEL-28 melanoma = test system: SK-MEL-28 melanoma
SK-MEL-5 melanoma = test system: SK-MEL-5 melanoma
SK-OV-3 ovarian = test system: SK-OV-3 ovarian
SN12C renal = test system: SN12C renal
SNB-19 CNS = test system: SNB-19 CNS
SNB-75 CNS = test system: SNB-75 CNS
SW-620 colon = test system: SW-620 colon
T-47D breast = test system: T-47D breast
TK-10 renal = test system: TK-10 renal
U251 CNS = test system: U251 CNS
UACC-257 melanoma = test system: UACC-257 melanoma
UACC-62 melanoma = test system: UACC-62 melanoma
UO-31 renal = test system: UO-31 renal

SMILES: Cc1ccc(C2CC(c3ccc(Nc4nc(NCCO)nc(Nc5ccc(Cl)cc5)n4)cc3)=Nc3c(N)nc(N)nc3N2)cc1 (centres undefined)
- GI50 (786-0 renal): 1640 nM
- TGI (786-0 renal): 3060 nM
- GI50 (A498 renal): 3850 nM
- TGI (A498 renal): 17700 nM
- GI50 (A549 NSCLC): 1740 nM
- TGI (A549 NSCLC): 3440 nM
- GI50 (ACHN renal): 1720 nM
- TGI (ACHN renal): 3090 nM
- GI50 (BT-549 breast): 1730 nM
- TGI (BT-549 breast): 3140 nM
- GI50 (CAKI-1 renal): 1640 nM
- TGI (CAKI-1 renal): 3060 nM
- GI50 (COLO 205 colon): 1670 nM
- TGI (COLO 205 colon): 3190 nM
- GI50 (DU-145 prostate): 1760 nM
- TGI (DU-145 prostate): 3190 nM
- GI50 (EKVX NSCLC): 1550 nM
- TGI (EKVX NSCLC): 2970 nM
- GI50 (HCC-2998 colon): 1550 nM
- TGI (HCC-2998 colon): 2930 nM
- GI50 (HCT-116 colon): 1620 nM
- TGI (HCT-116 colon): 2970 nM
- GI50 (HCT-15 colon): 1480 nM
- TGI (HCT-15 colon): 2950 nM
- GI50 (HL-60(TB) leukemia): 1710 nM
- TGI (HL-60(TB) leukemia): 4710 nM
- GI50 (HOP-62 NSCLC): 1680 nM
- TGI (HOP-62 NSCLC): 3200 nM
- GI50 (HOP-92 NSCLC): 1300 nM
- TGI (HOP-92 NSCLC): 2860 nM
- GI50 (HS 578T breast): 1790 nM
- TGI (HS 578T breast): 4360 nM
- GI50 (HT29 colon): 1780 nM
- TGI (HT29 colon): 3560 nM
- GI50 (IGROV1 ovarian): 1650 nM
- TGI (IGROV1 ovarian): 3140 nM
- GI50 (K-562 leukemia): 1340 nM
- TGI (K-562 leukemia): 3920 nM
- GI50 (KM12 colon): 1970 nM
- TGI (KM12 colon): 3860 nM
- GI50 (LOX IMVI melanoma): 1650 nM
- TGI (LOX IMVI melanoma): 3070 nM
- GI50 (M14 melanoma): 1840 nM
- TGI (M14 melanoma): 3320 nM
- GI50 (MALME-3M melanoma): 1700 nM
- TGI (MALME-3M melanoma): 3370 nM
- GI50 (MCF7 breast): 1460 nM
- TGI (MCF7 breast): 3010 nM
- GI50 (MDA-MB-231 breast): 1670 nM
- TGI (MDA-MB-231 breast): 3260 nM
- GI50 (MDA-MB-435): 1730 nM
- TGI (MDA-MB-435): 3130 nM
- GI50 (MOLT-4 leukemia): 1380 nM
- TGI (MOLT-4 leukemia): 3890 nM
- GI50 (NCI-H226 lung): 16700 nM
- TGI (NCI-H226 lung): 38400 nM
- GI50 (NCI-H460 lung): 1800 nM
- TGI (NCI-H460 lung): 3390 nM
- GI50 (NCI-H522 lung): 1720 nM
- TGI (NCI-H522 lung): 3470 nM
- GI50 (NCI/ADR-RES ovarian): 1730 nM
- TGI (NCI/ADR-RES ovarian): 3480 nM
- GI50 (OVCAR-4 ovarian): 1850 nM
- TGI (OVCAR-4 ovarian): 3630 nM
- GI50 (OVCAR-5 ovarian): 1620 nM
- TGI (OVCAR-5 ovarian): 3010 nM
- GI50 (OVCAR-8 ovarian): 1800 nM
- TGI (OVCAR-8 ovarian): 3690 nM
- GI50 (PC-3 prostate): 1740 nM
- TGI (PC-3 prostate): 3600 nM
- GI50 (SF-268 CNS): 1810 nM
- TGI (SF-268 CNS): 3640 nM
- GI50 (SF-295 CNS): 1630 nM
- TGI (SF-295 CNS): 3030 nM
- GI50 (SF-539 CNS): 1570 nM
- TGI (SF-539 CNS): 2970 nM
- GI50 (SK-MEL-2 melanoma): 1810 nM
- TGI (SK-MEL-2 melanoma): 3400 nM
- GI50 (SK-MEL-28 melanoma): 1770 nM
- TGI (SK-MEL-28 melanoma): 3160 nM
- GI50 (SK-MEL-5 melanoma): 1560 nM
- TGI (SK-MEL-5 melanoma): 2910 nM
- GI50 (SK-OV-3 ovarian): 2690 nM
- TGI (SK-OV-3 ovarian): 7330 nM
- GI50 (SN12C renal): 1790 nM
- TGI (SN12C renal): 3380 nM
- GI50 (SNB-19 CNS): 1570 nM
- TGI (SNB-19 CNS): 3000 nM
- GI50 (SNB-75 CNS): 1620 nM
- TGI (SNB-75 CNS): 3310 nM
- GI50 (SW-620 colon): 1790 nM
- TGI (SW-620 colon): 3310 nM
- GI50 (T-47D breast): 1670 nM
- TGI (T-47D breast): 3650 nM
- GI50 (TK-10 renal): 1900 nM
- TGI (TK-10 renal): 3380 nM
- GI50 (U251 CNS): 1600 nM
- TGI (U251 CNS): 3010 nM
- GI50 (UACC-257 melanoma): 1840 nM
- TGI (UACC-257 melanoma): 3460 nM
- GI50 (UACC-62 melanoma): 1820 nM
- TGI (UACC-62 melanoma): 3390 nM
- GI50 (UO-31 renal): 1640 nM
- TGI (UO-31 renal): 3000 nM
